The pIC50 is the negative decadic logarithm of the IC50, by convention in mol/L. High values mean a small IC50, low ones a large IC50.

pIC50: −log10 of the molar value.

These results are taken from US20260174750A1 (Merck Sharp & Dohme LLC, priority 2022, published 2026).

This assay has as its target T1, human DGAT2 (Homo sapiens, UniProt Q96PD7).
T1 sequence (Q96PD7 1-388): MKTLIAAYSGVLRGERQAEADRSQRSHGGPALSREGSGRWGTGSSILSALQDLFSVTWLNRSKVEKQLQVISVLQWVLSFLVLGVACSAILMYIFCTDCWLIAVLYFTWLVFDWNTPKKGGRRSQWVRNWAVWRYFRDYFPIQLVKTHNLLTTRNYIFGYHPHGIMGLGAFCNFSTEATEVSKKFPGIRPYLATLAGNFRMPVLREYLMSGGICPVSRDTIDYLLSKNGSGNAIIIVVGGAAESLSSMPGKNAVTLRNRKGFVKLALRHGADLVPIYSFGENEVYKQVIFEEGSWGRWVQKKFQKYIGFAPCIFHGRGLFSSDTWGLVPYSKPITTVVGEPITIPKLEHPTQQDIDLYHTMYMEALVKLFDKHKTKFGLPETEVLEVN
As to the kind of experiment: biochemical.
Method: Cell pellets were suspended in buffer containing 10 mM Tris-HCl pH 7.5, 1 mM EDTA, 250 mM sucrose and Complete Protease Inhibitor Cocktail (Sigma Aldrich), and sonicated on ice. Cell debris were removed by centrifugation at 2000×g for 15 minutes. Membrane fractions were isolated by ultracentrifugation (100,000×g), resuspended in the same buffer, and frozen (−80° C.) for later use. The protein concentration was determined with the Pierce™ BCA Protein Assay Kit (Thermo Fisher Scientific).
LC/MS/MS analyses were performed using Thermal Fisher's LX4-TSQ Vantage system. This system consists of an Agilent binary high-performance liquid chromatography (HPLC) pump and a TSQ Vantage triple quadrupole MS/MS instrument. For each sample, 2 μL samples from the top organic layer of in-plate liquid-liquid extraction were injected onto a Thermo Betabasic C4 column (2.1 mm×20 mm, 5 μm particle size). The samples were then eluted using the following conditions; mobile phase: Isopropanol:acetonitrile/10 mM ammonium formate=50/35/15 (v/v/v), flow rate: 0.8 mL/min, temperature: 25° C. Data was acquired in positive mode using a heated electrospray ionization (HESI) interface. […] The peak area was integrated by Xcalibur Quan software. The ratio between the ^13C18 triolein generated in the reaction and spiked in internal standard ^13C21-triolein was used to generate percentage inhibition and IC50 values. […] DGAT2 activity was determined by measuring the amount of enzymatic product ^13C18-triolein (^13C-1,2,3-Tri(cis-9-octadecenoyl)glycerol) using the membrane prep mentioned above. The assay was carried out in ABgene 384-well assay plates in a final volume of 25 μL at rt.
For `CCOc1cccnc1Oc1ccc2nc(C(=O)NC3(C)CCS(=O)(=O)CC3)nn2c1` [Example 2, 6-[(3-ethoxy-2-pyridyl)oxy]-N-(4-methyl-1,1-dioxo-thian-4-yl)-[1,2,4]triazolo[1,5-a]pyridine-2-carboxamide], the pIC50 is 7.77.

For the molecule `CCOc1cccnc1Oc1ccc2nc(C(=O)NC3(C)CS(=O)(=O)C3)nn2c1` [Example 3, 6-[(3-ethoxy-2-pyridyl)oxy]-N-(3-methyl-1,1-dioxo-thietan-3-yl)-[1,2,4]triazolo[1,5-a]pyridine-2-carboxamide], the pIC50 was 6.99. The result for `CCOc1cccnc1Oc1ccc2nc(C(=O)N[C@H]3CCOC3)nn2c1` [Example 4, 6-[(3-ethoxy-2-pyridyl)oxy]-N-[(3S)-tetrahydrofuran-3-yl]-[1,2,4]triazolo[1,5-a]pyridine-2-carboxamide] reads 6.42; that for `CCOc1cccnc1Oc1ccc2nc(C(=O)N[C@@H]3CCOC3)nn2c1` [Example 5, 6-[(3-ethoxy-2-pyridyl)oxy]-N-[(3R)-tetrahydrofuran-3-yl]-[1,2,4]triazolo[1,5-a]pyridine-2-carboxamide], 5.61. `CCOc1cccnc1Oc1ccc2nc(C(=O)N[C@H]3CC[C@@](OC)(C(F)(F)F)CC3)nn2c1` [Example 6, 6-[(3-ethoxy-2-pyridyl)oxy]-N-[4-methoxy-4-(trifluoromethyl)cyclohexyl]-[1,2,4]triazolo[1,5-a]pyridine-2-carboxamide] had a pIC50 of 6.83. Molecule `CC1(NC(=O)c2nc3ccc(Oc4ncccc4OCC(F)(F)F)cn3n2)CCS(=O)(=O)CC1` [Example 7, N-(4-methyl-1,1-dioxo-thian-4-yl)-6-[[3-(2,2,2-trifluoroethoxy)-2-pyridyl]oxy]-[1,2,4]triazolo[1,5-a]pyridine-2-carboxamide] gave a pIC50 of 6.90.

`CC1(NC(=O)c2nc3ccc(Oc4ncccc4OCC(F)(F)F)cn3n2)CCC(F)(F)CC1` [Example 8, N-(4,4-difluoro-1-methyl-cyclohexyl)-6-[[3-(2,2,2-trifluoroethoxy)-2-pyridyl]oxy]-[1,2,4]triazolo[1,5-a]pyridine-2-carboxamide] had a pIC50 of 6.75. As to `CC1(NC(=O)c2nc3ccc(Oc4ncccc4OCC(F)(F)F)cn3n2)CC(F)(F)C1` [Example 9], the pIC50 was 5.08. Then `CC1(NC(=O)c2nc3ccc(Oc4ncc(Cl)cc4OCC(F)(F)F)cn3n2)CS(=O)(=O)C1` [Example 10, 6-[[5-chloro-3-(2,2,2-trifluoroethoxy)-2-pyridyl]oxy]-N-(3-methyl-1,1-dioxo-thietan-3-yl)-[1,2,4]triazolo[1,5-a]pyridine-2-carboxamide], with 6.82; and `O=C(N[C@H]1CCCC(F)(F)[C@@H]1O)c1nc2ccc(Oc3ncc(Cl)cc3OCC(F)(F)F)cn2n1` [Example 11], with 7.22; and `Cc1c(Oc2ncc(Cl)cc2OCC2(F)CC2)ccc2nc(C(=O)NC3(C)CCS(=O)(=O)CC3)nn12` [Example 15, 6-[[5-chloro-3-[(1-fluorocyclopropyl)methoxy]-2-pyridyl]oxy]-5-methyl-N-(4-methyl-1,1-dioxo-thian-4-yl)-[1,2,4]triazolo[1,5-a]pyridine-2-carboxamide], with 7.96. `Cc1c(Oc2ncc(F)cc2OCC2(F)CC2)ccc2nc(C(=O)NC3(C)CCS(=O)(=O)CC3)nn12` [Example 16, 6-[[5-fluoro-3-[(1-fluorocyclopropyl)methoxy]-2-pyridyl]oxy]-5-methyl-N-(4-methyl-1,1-dioxo-thian-4-yl)-[1,2,4]triazolo[1,5-a]pyridine-2-carboxamide] showed a pIC50 of 7.60. In turn, `Cc1c(Oc2ncc(Cl)cc2OCC(C)(F)F)ccc2nc(C(=O)NC3(C)CCS(=O)(=O)CC3)nn12` [Example 18] gave a pIC50 of 7.30.

The molecule `Cc1c(Oc2ncc(F)cc2OCC(C)(F)F)ccc2nc(C(=O)NC3(C)CCS(=O)(=O)CC3)nn12` [Example 19, 6-[[3-(2,2-difluoropropoxy)-5-fluoro-2-pyridyl]oxy]-5-methyl-N-(4-methyl-1,1-dioxo-thian-4-yl)-[1,2,4]triazolo[1,5-a]pyridine-2-carboxamide] gave a pIC50 of 6.68. In turn, `Cc1c(Oc2ncc(Cl)cc2OCC(F)(F)F)ccc2nc(C(=O)N[C@H]3CCCC(F)(F)[C@@H]3O)nn12` [Example 21, 6-[[5-chloro-3-(2,2,2-trifluoroethoxy)-2-pyridyl]oxy]-N-[(1S,2R)-3,3-difluoro-2-hydroxy-cyclohexyl]-5-methyl-[1,2,4]triazolo[1,5-a]pyridine-2-carboxamide] gave a negative-log IC50 (pIC50) of 6.24. Take `Cc1cc2nc(C(=O)N[C@H]3CCCC(F)(F)[C@@H]3O)nn2cc1Oc1ncc(Cl)cc1OCC(F)(F)F` [Example 23, 6-[[5-chloro-3-(2,2,2-trifluoroethoxy)-2-pyridyl]oxy]-N-[(1S,2R)-3,3-difluoro-2-hydroxy-cyclohexyl]-7-methyl-[1,2,4]triazolo[1,5-a]pyridine-2-carboxamide]: the pIC50 is 7.04. The result for `Cc1cc2nc(C(=O)NC3(C)CCS(=O)(=O)CC3)nn2c(C)c1Oc1ncc(Cl)cc1OCC(F)(F)F` [Example 24, 6-((5-Chloro-3-(2,2,2-trifluoroethoxy)pyridin-2-yl)oxy)-5,7-dimethyl-N-(4-methyl-1,1-dioxidotetrahydro-2H-thiopyran-4-yl)-[1,2,4]triazolo[1,5-a]pyridine-2-carboxamide] reads 6.74; that for `Cc1cc2nc(C(=O)NC3(C)CCS(=O)(=O)CC3)nn2c(C)c1Oc1nccnc1OCC(F)(F)F` [Example 25, 5,7-dimethyl-N-(4-methyl-1,1-dioxo-thian-4-yl)-6-[3-(2,2,2-trifluoroethoxy)pyrazin-2-yl]oxy-[1,2,4]triazolo[1,5-a]pyridine-2-carboxamide], 7.04. The molecule `CC1(NC(=O)c2nc3c(F)cc(Oc4ncc(Cl)cc4OCC(F)(F)F)cn3n2)CCS(=O)(=O)CC1` [Example 26, 6-((5-Chloro-3-(2,2,2-trifluoroethoxy)pyridin-2-yl)oxy)-8-fluoro-N-(4-methyl-1,1-dioxidotetrahydro-2H-thiopyran-4-yl)-[1,2,4]triazolo[1,5-a]pyridine-2-carboxamide] gave a pIC50 of 8.02. Consider `Cc1c(Oc2ncc(Cl)cc2OCC(F)(F)F)cc(F)c2nc(C(=O)NC3(C)CCS(=O)(=O)CC3)nn12` [Example 28, 6-[[5-Chloro-3-(2,2,2-trifluoroethoxy)-2-pyridyl]oxy]-8-fluoro-5-methyl-N-(4-methyl-1,1-dioxo-thian-4-yl)-[1,2,4]triazolo[1,5-a]pyridine-2-carboxamide], for which the pIC50 is 7.92.

On to `Cc1c(Oc2ncc(Cl)cc2OCC(F)(F)F)cc(F)c2nc(C(=O)NC3(C)CS(=O)(=O)C3)nn12` [Example 29, 6-[[5-chloro-3-(2,2,2-trifluoroethoxy)-2-pyridyl]oxy]-8-fluoro-5-methyl-N-(3-methyl-1,1-dioxo-thietan-3-yl)-[1,2,4]triazolo[1,5-a]pyridine-2-carboxamide], for which the pIC50 was 6.42. The molecule `Cc1c(Oc2ncc(F)cc2OCC(F)(F)F)cc(F)c2nc(C(=O)NC3(C)CCS(=O)(=O)CC3)nn12` [Example 30, 8-fluoro-6-[[5-fluoro-3-(2,2,2-trifluoroethoxy)-2-pyridyl]oxy]-5-methyl-N-(4-methyl-1,1-dioxo-thian-4-yl)-[1,2,4]triazolo[1,5-a]pyridine-2-carboxamide] had a negative logarithm of the IC50 (pIC50) of 7.72. In the case of `Cc1c(Oc2ncc(Cl)cc2OCC(C)(F)F)cc(F)c2nc(C(=O)NC3(C)CCS(=O)(=O)CC3)nn12` [Example 31, 6-[[5-chloro-3-(2,2-difluoropropoxy)-2-pyridyl]oxy]-8-fluoro-5-methyl-N-(4-methyl-1,1-dioxo-thian-4-yl)-[1,2,4]triazolo[1,5-a]pyridine-2-carboxamide], the pIC50 is 7.52. Then `Cc1c(Oc2ncc(F)cc2OCC(C)(F)F)cc(F)c2nc(C(=O)NC3(C)CCS(=O)(=O)CC3)nn12` [Example 32, 6-[[3-(2,2-difluoropropoxy)-5-fluoro-2-pyridyl]oxy]-8-fluoro-5-methyl-N-(4-methyl-1,1-dioxo-thian-4-yl)-[1,2,4]triazolo[1,5-a]pyridine-2-carboxamide], with 7.21; and `Cc1c(Oc2nccnc2OCC(F)F)cc(F)c2nc(C(=O)NC3(C)CCS(=O)(=O)CC3)nn12` [Example 34, 6-[3-(2,2-difluoroethoxy)pyrazin-2-yl]oxy-8-fluoro-5-methyl-N-(4-methyl-1,1-dioxo-thian-4-yl)-[1,2,4]triazolo[1,5-a]pyridine-2-carboxamide], with 7.51.

Take `Cc1c(OCc2ncc(F)cc2OCC(F)(F)F)ccc2nc(C(=O)NC3(C)CCS(=O)(=O)CC3)nn12` [Example 35, 6-((5-Fluoro-3-(2,2,2-trifluoroethoxy)pyridin-2-yl)methoxy)-5-methyl-N-(4-methyl-1,1-dioxidotetrahydro-2H-thiopyran-4-yl)-[1,2,4]triazolo[1,5-a]pyridine-2-carboxamide]: the pIC50 is 5.77. `Cc1c(OCc2ncc(Cl)cc2OCC(F)F)ccc2nc(C(=O)NC3(C)CCS(=O)(=O)CC3)nn12` [Example 36, 6-((5-chloro-3-(2,2-difluoroethoxy)pyridin-2-yl)methoxy)-5-methyl-N-(4-methyl-1,1-dioxidotetrahydro-2H-thiopyran-4-yl)-[1,2,4]triazolo[1,5-a]pyridine-2-carboxamide] had a pIC50 of 6.47.
